From the NIST ThermoML archive (doi:10.1016/j.tca.2016.03.013)
“And” between values parts separate entries of the source, which are not always exact repeats. Equal values may be shown once. ± gives the expanded uncertainty stated by the source.

How the values were obtained:
[1] = for vapor or sublimation pressure: Liquid, Rate of evaporation; for Normal melting temperature: Crystal, DTA
[2] = Molar enthalpy of transition or fusion; conditions: Crystal; DSC
[3] = molar heat capacity at constant pressure; conditions: 101.33 kPa, Small sample (50 mg) DSC

c1ccc2c(c1)OCCOCCOCCOCCOc1ccccc1OCCOCCOCCOCCO2 [dibenzo-30-crown-10]
[1]
Conditions	vapor or sublimation pressure
545 K	0.0347 ± 0.011 kPa and 0.0354 ± 0.011 kPa
550 K	0.0405 ± 0.013 kPa and 0.0424 ± 0.014 kPa and 0.0433 ± 0.014 kPa
555 K	0.0515 ± 0.017 kPa and 0.0526 ± 0.017 kPa and 0.0536 ± 0.017 kPa
560 K	0.0655 ± 0.021 kPa and 0.0614 ± 0.019 kPa and 0.0649 ± 0.021 kPa
565 K	0.0772 ± 0.025 kPa and 0.0781 ± 0.025 kPa and 0.0764 ± 0.024 kPa
570 K	0.0969 ± 0.031 kPa and 0.0924 ± 0.03 kPa and 0.0946 ± 0.03 kPa
575 K	0.116 ± 0.037 kPa and 0.118 ± 0.038 kPa and 0.1176 ± 0.038 kPa
580 K	0.1429 ± 0.046 kPa and 0.1455 ± 0.047 kPa and 0.1444 ± 0.047 kPa
585 K	0.1768 ± 0.057 kPa and 0.1779 ± 0.057 kPa and 0.188 ± 0.06 kPa
590 K	0.2184 ± 0.069 kPa and 0.2143 ± 0.068 kPa and 0.2192 ± 0.069 kPa
595 K	0.2675 ± 0.085 kPa and 0.2625 ± 0.083 kPa and 0.2682 ± 0.085 kPa

Conditions	Molar enthalpy of transition or fusion [kcal/mol]	Normal melting temperature [°C]
[1]	–	104.5 ± 0.39
[2]	20.7 ± 0.43	–

[3]
Conditions	molar heat capacity at constant pressure [J/K/mol]
295 K, Crystal	668.8 ± 41
298.15 K, Crystal	680.4 ± 42
300 K, Crystal	686.9 ± 42
305 K, Crystal	700.3 ± 43
310 K, Crystal	715.3 ± 44
315 K, Crystal	728.4 ± 45
320 K, Crystal	741.6 ± 46
325 K, Crystal	755.5 ± 47
330 K, Crystal	769.9 ± 48
335 K, Crystal	783.3 ± 48
340 K, Crystal	797 ± 49
345 K, Crystal	811.5 ± 50
350 K, Crystal	826.4 ± 51
355 K, Crystal	844.9 ± 52
360 K, Crystal	868.2 ± 54
390 K, Liquid	1144.6 ± 68
395 K, Liquid	1148.9 ± 69
400 K, Liquid	1153 ± 69
405 K, Liquid	1159.5 ± 69
410 K, Liquid	1164.6 ± 70
415 K, Liquid	1169.3 ± 70
420 K, Liquid	1179.2 ± 70
425 K, Liquid	1186.2 ± 71
430 K, Liquid	1187.9 ± 71
435 K, Liquid	1195 ± 71
440 K, Liquid	1196.6 ± 71
445 K, Liquid	1199.2 ± 72
450 K, Liquid	1201.2 ± 72
455 K, Liquid	1200.9 ± 72
460 K, Liquid	1201.6 ± 72
465 K, Liquid	1202 ± 72
470 K, Liquid	1201.9 ± 72

C1COCCOCCOCCOCCOCCO1 [1,4,7,10,13,16-hexaoxacyclooctadecane]
[1]
Conditions	vapor or sublimation pressure
430 K	0.3102 ± 0.11 kPa and 0.3376 ± 0.11 kPa and 0.3358 ± 0.11 kPa
435 K	0.4315 ± 0.14 kPa and 0.4219 ± 0.14 kPa and 0.4305 ± 0.14 kPa
440 K	0.5414 ± 0.17 kPa and 0.5488 ± 0.18 kPa and 0.5487 ± 0.18 kPa
445 K	0.6904 ± 0.22 kPa and 0.6934 ± 0.22 kPa and 0.6846 ± 0.22 kPa
450 K	0.858 ± 0.27 kPa and 0.8682 ± 0.28 kPa and 0.8441 ± 0.27 kPa
455 K	1.063 ± 0.34 kPa and 1.052 ± 0.34 kPa
460 K	1.315 ± 0.42 kPa and 1.31 ± 0.42 kPa and 1.317 ± 0.42 kPa
465 K	1.616 ± 0.51 kPa and 1.619 ± 0.52 kPa and 1.602 ± 0.51 kPa
470 K	1.972 ± 0.63 kPa and 1.959 ± 0.62 kPa and 1.967 ± 0.63 kPa
475 K	2.394 ± 0.76 kPa and 2.387 ± 0.76 kPa and 2.399 ± 0.76 kPa
480 K	2.879 ± 0.91 kPa and 2.853 ± 0.9 kPa and 2.858 ± 0.9 kPa

Conditions	Molar enthalpy of transition or fusion [kcal/mol]	Normal melting temperature [°C]
[1]	–	39.17 ± 0.39
[2]	9.56 ± 0.203	–

[3]
Conditions	molar heat capacity at constant pressure [J/K/mol]
290 K, Crystal	380.3 ± 24
291 K, Crystal	388.3 ± 25
292 K, Crystal	394.8 ± 25
293 K, Crystal	401.7 ± 26
294 K, Crystal	409.8 ± 26
295 K, Crystal	418.9 ± 27
296 K, Crystal	428.4 ± 27
297 K, Crystal	440.7 ± 28
298 K, Crystal	457 ± 29
298.15 K, Crystal	460 ± 30
299 K, Crystal	479.4 ± 31
315 K, Liquid	515 ± 14
320 K, Liquid	516.5 ± 14
325 K, Liquid	518.7 ± 14
330 K, Liquid	521.5 ± 14
335 K, Liquid	522.8 ± 14
340 K, Liquid	524.9 ± 14
345 K, Liquid	526.3 ± 14
350 K, Liquid	527.8 ± 14
355 K, Liquid	528.8 ± 14
410 K, Liquid	562.4 ± 15
415 K, Liquid	567.4 ± 15
420 K, Liquid	573.6 ± 15
425 K, Liquid	578.6 ± 15
430 K, Liquid	582.6 ± 15
435 K, Liquid	587.1 ± 15
440 K, Liquid	590.4 ± 15
445 K, Liquid	595.2 ± 16
450 K, Liquid	599.4 ± 16
455 K, Liquid	603 ± 16
460 K, Liquid	607.7 ± 16
465 K, Liquid	612.5 ± 16
470 K, Liquid	617.4 ± 16
475 K, Liquid	621.3 ± 16
480 K, Liquid	626.4 ± 16
485 K, Liquid	630.9 ± 16
490 K, Liquid	635.9 ± 17
